The subject of one data set is Alternaria solani. Nature of the data set: Alternaria solani / tomato / leaf disc (early blight). The data set is classed as in vivo. The following applies: foliar, tomato leaf disks, sprayed 2 days before inoculation, compared to untreated control. As to the method: Example B1: Alternaria solani/Tomato/Leaf Disc (Early Blight) Tomato leaf disks cv. Baby are placed on agar in multiwell plates (24-well format) and sprayed with the formulated test compound diluted in water. The leaf disks are inoculated with a spore suspension of the fungus 2 days after application. The inoculated leaf disks are incubated at 23° C./21° C.

In data set [1] the test system is Botryotinia fuckeliana (Botrytis cinerea). In words: Botryotinia fuckeliana (Botrytis cinerea) / liquid culture (gray mould). The data set is classed as cell-based. The settings on record: growth inhibition photometrically 3-4 days after application, read-out: control of Botryotinia fuckeliana. The essentials:
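Conidia suspended in Vogels broth and added to compound dispensed from DMSO. Incubated at 24°C, with growth inhibition measured photometrically 3–4 days later.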

The test system of data set [2] is Glomerella lagenarium (Colletotrichum lagenarium). Nature of the data set: Glomerella lagenarium (Colletotrichum lagenarium) / liquid culture (anthracnose). The data set is classed as cell-based. The following applies: Colletotrichum orbiculare, growth inhibition photometrically 3-4 days after application, read-out: control of Glomerella lagenarium. A digest of the protocol:
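Cryo-stored conidia in potato dextrose broth were added to test compound in DMSO. Plates were incubated at 24° C, and growth inhibition was read photometrically 3-4 days after application.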

Data set [3] has as its system Blumeria graminis f. sp. tritici (Erysiphe graminis f. sp. tritici). In words: Blumeria graminis f. sp. tritici / wheat / leaf disc preventative (powdery mildew on wheat). The data set is classed as in vivo. The settings on record: foliar, wheat leaf segments, inoculated 1 day after application. The essentials: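 Wheat cv. Kanzler leaf segments on agar sprayed with formulated compound in water, inoculated 1 day later by shaking mildew-infected plants overhead. Incubated at 20° C, 60% rh, 24 h dark then 12 h light/12 h dark. Percent disease control versus untreated scored 6-8 days after application.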

Data set [4] concerns Fusarium culmorum. In words: microbe, parasite or virus in culture. The following applies: read-out: control of Fusarium culmorum. The data set is classed as cell-based.
Data set [5] has as its system Fusarium culmorum. In words: whole plant or invertebrate. The data set is classed as in vivo. The following applies: in Triticum aestivum, read-out: control of Fusarium culmorum.
Data set [6] has as its system Phaeosphaeria nodorum (Septoria nodorum). Nature of the data set: Phaeosphaeria nodorum (Septoria nodorum) / wheat / leaf disc preventative (glume blotch). In kind it is in vivo. The following applies: Parastagonospora nodorum, foliar, wheat leaf segments, inoculated 2 days after application. The essentials: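 Wheat cv. Kanzler leaf segments on agar sprayed preventatively with formulated compound diluted in water, then inoculated with spore suspension 2 days after application. Incubated at 20° C, 75% rh, 12 h light/12 h dark; percent disease control versus untreated scored 5-7 days after application.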

Data set [7] concerns Monographella nivalis (Microdochium nivale). In words: Monographella nivalis (Microdochium nivale) / liquid culture (foot rot cereals). In kind it is cell-based. The settings on record: growth inhibition photometrically 4-5 days after application, read-out: control of Monographella nivalis. The essentials:
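Fungal conidia mixed directly into potato dextrose broth and added to test compound delivered in DMSO. Incubated at 24° C; growth inhibition read photometrically 4-5 days after application.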

For data set [8], the system named is Mycosphaerella arachidis (Cercospora arachidicola). Nature of the data set: Mycosphaerella arachidis (Cercospora arachidicola) / liquid culture (early leaf spot). The data set is classed as cell-based. The settings on record: growth inhibition photometrically 4-5 days after application, read-out: control of Mycosphaerella arachidis. A digest of the protocol: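 Spores taken straight from cryostorage are suspended in potato dextrose broth and added to test compound in DMSO. Plates are incubated at 24° C. Growth inhibition is scored photometrically 4-5 days after application.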

For the next data set, the system named is Pyrenophora teres. Nature of the data set: Pyrenophora teres / barley / leaf disc preventative (net blotch). The settings on record: foliar, barley leaf segments, inoculated 2 days after application. In kind it is in vivo. A digest of the protocol:
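Barley cv. Hasso leaf segments on agar sprayed with formulated compound, inoculated with spores 2 days later. Incubated at 20 °C, 65% rh, 12 h light/dark; disease control versus untreated assessed 5–7 days after application.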

Another data set has as its system Sclerotinia sclerotiorum. Nature of the data set: Sclerotinia sclerotiorum / liquid culture (cottony rot). The settings on record: growth inhibition photometrically 3-4 days after application, read-out: control of Sclerotinia sclerotiorum. The data set is classed as cell-based. As to the method: Example B15: Sclerotinia sclerotiorum/Liquid Culture (Cottony Rot) Mycelia fragments of a newly grown liquid culture of the fungus are directly mixed into nutrient broth (PDB potato dextrose broth). After placing a (DMSO) solution of test compound into a microtiter plate (96-well format) the nutrient broth containing the fungal material is added. The test plates are incubated at 24° C. and the inhibition of growth is determined photometrically 3-4 days after application.

Data set [9] deals with Mycosphaerella graminicola (Septoria tritici). Nature of the data set: Mycosphaerella graminicola (Septoria tritici) / liquid culture (Septoria blotch). The settings on record: Zymoseptoria tritici, growth inhibition photometrically 4-5 days after application, read-out: control of Mycosphaerella graminicola. In kind it is cell-based. The essentials:
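Conidia suspended in potato dextrose broth and added to test compound supplied in DMSO in 96-well plates. Incubated at 24 °C, and growth inhibition read photometrically 4-5 days after application.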

For data set [10], the system named is Gibberella zeae (Fusarium graminearum). In words: whole plant or invertebrate. The data set is classed as in vivo. The following applies: in Triticum aestivum, read-out: control of Gibberella zeae.

Molecules are shown by their SMILES.

For `Cn1cc([C@@](C)(CNC(=O)c2cc(-c3ccc(F)cc3F)on2)c2cccc(Cl)n2)cn1` [Compound P-29, N-[(2S)-2-(6-chloro-2-pyridyl)-2-(1-methylpyrazol-4-yl)propyl]-5-(2,4-difluorophenyl) isoxazole-3-carboxamide], the pest or weed control at 200 ppm (in the data set on Alternaria solani; in [3]; in the data set on Fusarium culmorum [5]; in [6]; with Pyrenophora teres) was not below 80% throughout. Further, the inhibition of growth at 20 ppm (in data set [1]; in [2]; in the data set with Fusarium culmorum [4]; in data set [7]; in data set [8]; in the data set on Sclerotinia sclerotiorum) was not below 80% in each case. For the same compound, the inhibition of growth at 20 ppm in data set [9] is not below 80%.

A word on the melting point: it is the temperature, or range, at which the solid turns liquid. `Cn1cc(C(C)(CNC(=O)c2cc(-c3ccc(F)cc3F)on2)c2cccc(Br)n2)cn1` (stereo not drawn) [Compound P-24, N-[2-(6-bromo-2-pyridyl)-2-(1-methylpyrazol-4-yl)propyl]-5-(2,4-difluorophenyl) isoxazole-3-carboxamide] had a melting point of 141 to 143 °C. In the data set with Alternaria solani, this compound gave a pest or weed control at 200 ppm not below 80%. Further, the inhibition of growth at 20 ppm in data set [1] is not below 80%. The inhibition of growth at 20 ppm in data set [2] is not below 80%. The compound further yielded a pest or weed control at 200 ppm in [3] not below 80%. Also, in the data set on Fusarium culmorum [4], the inhibition of growth at 20 ppm is not below 80%. Moreover, in [10], the pest or weed control at 200 ppm was not below 80%. Also, the pest or weed control at 200 ppm in data set [6] was not below 80%. Besides, the inhibition of growth at 20 ppm in data set [7] is not below 80%. In addition, the inhibition of growth at 20 ppm in data set [8] was not below 80%. The pest or weed control at 200 ppm in the data set with Pyrenophora teres was not below 80%. The inhibition of growth at 20 ppm in the data set on Sclerotinia sclerotiorum is not below 80%. Also, the inhibition of growth at 20 ppm in data set [9] was not below 80%.

With `CCC(CNC(=O)c1cc(-c2ccc(F)cc2F)on1)(c1cnn(C)c1)c1cccc(Cl)n1` (stereo not drawn) [Compound P-31, N-[2-(6-chloro-2-pyridyl)-2-(1-methylpyrazol-4-yl)butyl]-5-(2,4-difluorophenyl) isoxazole-3-carboxamide], the pest or weed control at 200 ppm (in the data set on Alternaria solani; in [3]; in the data set with Fusarium culmorum [5]; in data set [6]; in the data set on Pyrenophora teres) was not below 80% each time. The inhibition of growth at 20 ppm (in data set [1]; in data set [2]; in the data set on Fusarium culmorum [4]; in data set [7]; in [8]; with Sclerotinia sclerotiorum) was not below 80% throughout. Moreover, the inhibition of growth at 20 ppm in [9] is not below 80%.

For the compound `Cn1cc([C@@](C)(CNC(=O)c2nnc(-c3ccc(F)cc3F)s2)c2cccc(Cl)n2)cn1` [Compound P-34, N-[(2S)-2-(6-chloro-2-pyridyl)-2-(1-methylpyrazol-4-yl)propyl]-5-(2,4-difluorophenyl)-1,3,4-thiadiazole-2-carboxamide], the pest or weed control at 200 ppm (in the data set on Alternaria solani; in [3]; in the data set with Fusarium culmorum [5]; in data set [6]; in the data set on Pyrenophora teres) was not below 80% throughout. Also, the inhibition of growth at 20 ppm (in data set [1]; in [2]; with Fusarium culmorum [4]; in [7]; in data set [8]; in the data set on Sclerotinia sclerotiorum) was not below 80% each time. Further, in data set [9], the inhibition of growth at 20 ppm is not below 80%.

On to `Cn1cc(C(C)(CNC(=O)c2nnc(-c3ccc(F)cc3F)s2)c2cccc(Cl)n2)cn1` (stereo not drawn) [Compound P-9, N-[2-(6-chloro-2-pyridyl)-2-(1-methylpyrazol-4-yl)propyl]-5-(2,4-difluorophenyl)-1,3,4-thiadiazole-2-carboxamide], for which the pest or weed control at 200 ppm (in the data set with Alternaria solani; in data set [3]; in data set [10]; in data set [6]; with Pyrenophora teres) was not below 80% throughout. For the same compound, the inhibition of growth at 20 ppm (in data set [1]; in data set [2]; in the data set on Fusarium culmorum [4]; in data set [7]; in data set [8]; in the data set on Sclerotinia sclerotiorum) was not below 80% throughout. In [9], the inhibition of growth at 20 ppm was not below 80%.

`COc1cc(Cl)nc([C@@](C)(CNC(=O)c2cc(-c3ccc(F)cc3F)no2)c2cnn(C)c2)c1` [Compound P-46, N-[(2R)-2-(6-chloro-4-methoxy-2-pyridyl)-2-(1-methylpyrazol-4-yl)propyl]-3-(2,4-difluorophenyl) isoxazole-5-carboxamide]: the inhibition of growth at 20 ppm (in [1]; in [2]; with Fusarium culmorum [4]; in data set [7]; in [8]; in data set [9]) was not below 80% throughout. In addition, the pest or weed control at 200 ppm (in the data set on Fusarium culmorum [5]; in data set [10]) was not below 80% in each case.

For the compound `Cn1cc(C(C)(CNC(=O)c2nnc(-c3ccc(F)cc3F)s2)c2cccc(Br)n2)cn1` (stereo not drawn) [Compound P-5, N-[2-(6-bromo-2-pyridyl)-2-(1-methylpyrazol-4-yl)propyl]-5-(2,4-difluorophenyl)-1,3,4-thiadiazole-2-carboxamide], the pest or weed control at 200 ppm (in the data set on Alternaria solani; in data set [3]; in the data set with Fusarium culmorum [5]; in [10]; in data set [6]; in the data set on Pyrenophora teres) was not below 80% throughout. The inhibition of growth at 20 ppm (in data set [1]; in data set [2]; in the data set on Fusarium culmorum [4]; in data set [7]; in [8]; in data set [9]) was not below 80% each time.

As for `Cc1cccc(C(C)(CNC(=O)c2nnc(-c3ccc(F)cc3F)s2)c2cnn(C)c2Cl)n1` (stereo not drawn) [Compound P-82, N-[2-(5-chloro-1-methyl-pyrazol-4-yl)-2-(6-methyl-2-pyridyl)propyl]-5-(2,4-difluorophenyl)-1,3,4-thiadiazole-2-carboxamide], the pest or weed control at 200 ppm (in the data set on Alternaria solani; in data set [3]; in [10]; in [6]; in the data set with Pyrenophora teres) was not below 80% each time. Further, the inhibition of growth at 20 ppm (in data set [1]; in data set [2]; in the data set on Fusarium culmorum [4]; in [7]; in data set [8]; in the data set with Sclerotinia sclerotiorum) was not below 80% throughout. Moreover, the inhibition of growth at 20 ppm in data set [9] was not below 80%.

The values above are taken from patent US20240343717A1, “MICROBIOCIDAL PYRAZOLE DERIVATIVES” (SYNGENTA CROP PROTECTION AG, priority 2021, published 2024).
